Structures can show the parent of a compound that is named as a salt.
Columns and labels:
Solubility in water = assay type: physicochemical
[1] = Stability in human serum at 37° C. (RP-HPLC); assay type: in vitro ADME; settings: for half-life at 200 μM: read-out: Stability in human serum t1/2
Protocol: (§1) The stability of the compound MC526 was studied through reverse phase chromatography in an aqueous medium at pH=1 and in the human serum at 37° C.
In order to assay the stability of the compound of Example 1 in human serum, a 10 mM solution of the compound in DMSO was added to human serum (obtained from human AB plasma, Sigma) preheated to 37° C. The final concentration of the compound was 200 μM. The resulting solution was incubated at 37±0.5° C. and 300 μL aliquots of the reaction mixture were collected and added to an equal amount of acetonitrile containing trifluoroacetic acid 0.1% at suitable time intervals for deproteinising the serum. The sample was sonicated, vortexed and then centrifuged for 10 minutes at 2150 g. The white supernatant was filtered using PTFE 0.45μm (Alltech) filters and analysed through RP-HPLC.
(§2) The analysis in RP-HPLC allows separating and quantifying the initial compounds and those deriving from hydrolysis. Analysis was carried out using a HP1100 (Agilent Technologies, Palo Alto, Calif., USA) chromatography system equipped with a quaternary pump (model G1311A), a degassing membrane (G1379A), a diode-array detector (DAD) (model G1315B) integrated in the HP1100 system. A HP ChemStation (Agilent Technologies) system was used for analyzing data. The analytic column was Nucleosil 100-5 C18 Nautilus (250×4, 6 mm, size of the particles 5 μm) (Macherey-Nagel). The mobile phase used was constituted by acetonitrile/water (55/45) with 0.1% trifluoroacetic acid and the flow rate is of 1.2 ml/min. The injection volume was 20 μl (Rheodyne, Cotati, Calif.). The effluent from column was monitored at 226 nm (for the compound MC526 and for CAS 1609) and at 240 nm (for salicylic acid and the salicylate AT38) against a reference at 600 nm. The quantification of the initial products and those deriving from hydrolysis was carried out by means of calibration curves obtained using standards studied in the same conditions (for concentrations comprised between 5 and 200 μM).

[2] = tested on: splenocytes of the BALB/C from the control animal group and from the animals carrying colon carcinoma26 (C26GM); assay: Proliferation assay (3H-TdR) of anti-CD3/anti-CD28 stimulated splenocytes; assay type: cell-based, mice; settings: FIG. 7
Protocol: The mice BALB/c were inoculated s.c. in the inguinal cavity with 0.5*10^6 cells C26GM. The mice were sacrificed after 9 days and the splenocytes were used for in vitro assays.
The splenocytes of the BALB/C from the control animal group and from the animals carrying colon carcinoma26 (C26GM) are plated to the concentration of 6*10^5 cells per well and stimulated with 3 μg/ml anti-CD3 (2C11, ATCC) and 2 μg/ml of anti-CD28 (clone 37.5, ATCC) both with and without scalar dilutions of the compounds subject of the invention. After 3 days of incubation, 1 μCi/well (1 Cl=37 GBq) of ^3H-TdR (PerkinElmer) is added to the culture for 18 hours and the addition thereof is monitored by scintillation.
In particular, the controls (Unst) refer to cells not stimulated with antiCD3 and antiCD28 and the control (St) on stimulated cells but drug-free. It can be observed that the doses corresponding to 200 μM and 100 μM are toxic for the cells, in that the proliferation is not observed even on healthy splenocytes.

[3] = Stability in aqueous medium at pH=1 (0.1 M HCl, 37° C., RP-HPLC); assay type: physicochemical; settings: compound unaltered after 1 hour of incubation, 100 μM
Protocol: as §1
In particular, a 10 mM solution of the compound of Example 1 in DMSO was added to a 0.1 M solution of HCl preheated to 37° C. The final concentration of the compound was 100 μM. The resulting solution was maintained at 37±0.5° C. and 20 μl aliquots of the reaction solution were analysed by means of RP-HPLC at suitable time intervals.
as §2

Compound	solubility (Solubility in water) [µg/mL]	Hydrolysis of the salicylate derivative in human serum ([1]; release of CAS 1609 and salicylic acid)	Proliferation assay result ([2]; 12.5 μM)	Proliferation assay result ([2]; 25 μM)	Proliferation assay result on healthy cells ([2]; 50 μM, healthy cells)	Proliferation assay result ([2]; 100 μM, healthy splenocytes)	Proliferation assay result ([2]; 200 μM, healthy splenocytes)	half-life at 200 μM [1] [min]	Stability in buffer at pH = 1 after 1 hour [3] [%]
NC(=O)c1c(COC(=O)c2ccccc2O)no[n+]1[O-] [AT38, [3-(aminocarbonyl)furoxan-4-yl]methyl salicylate, reference compound]	< 1	slowly releases the CAS 1609 compound and salicylic acid							
NCCC(=O)Oc1ccccc1C(=O)OCc1no[n+]([O-])c1C(N)=O [MC526, ([3-(aminocarbonyl)furoxan-4-yl]methyl-2-(β-alanyloxy)benzoate)hydrochloride]	10000		efficient and non-toxic	efficient and non-toxic	partly toxic	toxic	toxic	1.4	60
NCCCC(=O)Oc1ccccc1C(=O)OCc1no[n+]([O-])c1C(N)=O [MC596, ([3-(aminocarbonyl)furoxan-4-yl]methyl-2-(4-aminobutanoyloxy)benzoate hydrochloride)]	2500							1.6	90
CC(N)C(=O)Oc1ccccc1C(=O)OCc1no[n+]([O-])c1C(N)=O (stereo not shown) [MC598, ([3-(aminocarbonyl)furoxan-4-yl]methyl-2-(alanyloxy)benzoate hydrochloride)]	10000							1.3	80

Source: patent US8946271B2, “Water soluble furoxan derivatives having antitumor activity” (Humanitas Mirasole S.p.A., priority 2010, dated 2015)
